The values that follow come from patent US20230381280A1, “NEW DOSAGE REGIMEN FOR INHALED VASOACTIVE INTESTINAL POLYPEPTIDE” (priority 2020, published 2023).

For this data set, the system named is COVID-19 pulmonary involvement.

Consider `CC[C@H](C)[C@H](NC(=O)[C@H](CO)NC(=O)[C@H](CC(N)=O)NC(=O)[C@H](CC(C)C)NC(=O)[C@H](Cc1ccc(O)cc1)NC(=O)[C@H](CCCCN)NC(=O)[C@H](CCCCN)NC(=O)[C@@H](NC(=O)[C@H](C)NC(=O)[C@H](CCSC)NC(=O)[C@H](CCC(N)=O)NC(=O)[C@H](CCCCN)NC(=O)[C@H](CCCNC(=N)N)NC(=O)[C@H](CC(C)C)NC(=O)[C@H](CCCNC(=N)N)NC(=O)[C@@H](NC(=O)[C@H](Cc1ccc(O)cc1)NC(=O)[C@H](CC(N)=O)NC(=O)[C@H](CC(=O)O)NC(=O)[C@@H](NC(=O)[C@H](Cc1ccccc1)NC(=O)[C@@H](NC(=O)[C@H](C)NC(=O)[C@H](CC(=O)O)NC(=O)[C@H](CO)NC(=O)[C@@H](N)Cc1c[nH]cn1)C(C)C)[C@@H](C)O)[C@@H](C)O)C(C)C)C(=O)N[C@@H](CC(C)C)C(=O)N[C@@H](CC(N)=O)C(N)=O` [Aviptadil], for which the “Entering Intensive Care (%)” value (Age >=60, treatment group) was 25%. For the same compound, where the note is “human, in vivo”, the Tolerability result is recorded as “well tolerated”.
